Consider five compounds from ChEMBL document CHEMBL1150738, “Plant antitumor agents, 27. Isolation, structure, and structure activity relationships of alkaloids from Fagara macrophylla” (1987).

For one assay, the system named is P388. As to the kind of experiment: In vivo antitumor activity against mouse P388 cells at 30 to 50 mg/kg, ip relative to control. In kind it is functional. The conditions noted are these: for T/C: dose mg/kg 30-50, route intraperitoneal.
For another assay, the system named is B16. Put plainly: Cytotoxicity against mouse B16 cells. In kind it is functional, cell-based.

SMILES strings stand for the structures. The source made the active and inactive calls. The calls are words filed in the database; no cut-off is given here.

`COc1cc2c(cc1OC)C(OC)N(C)c1c-2ccc2cc3c(cc12)OCO3` (stereo unspecified) had a T/C with P388 of 240%. In the case of `COc1cc2cnc3c4cc5c(cc4ccc3c2cc1OC)OCO5`, the result in the assay on P388 was inactive.

In the case of `COc1cc2c(=O)n(C)c3c4cc5c(cc4ccc3c2cc1OC)OCO5`, the outcome in the assay on P388 was inactive. Take `COc1cc2c[n+](C)c3c4cc5c(cc4ccc3c2cc1OC)OCO5.[Cl-]` [NITIDINE CHLORIDE]: the T/C with P388 was determined as 240%. In addition, the outcome in the assay with B16 was inactive. In the case of `COc1cc2c(cc1OC)-c1ccc3cc4c(cc3c1N(C)C2)OCO4`, in the assay with P388, the outcome was inactive.
